Data published in PubChem BioAssay (NCI).
Where “and” joins values, the source holds several entries; their conditions need not be identical. Equal values may be shown once.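 Protocol summary: plate cells (96-well), add compound at 5 concentrations, incubate 48 h, interpolate endpoints linearly. At the GI50, growth is halved. Definition used: TGI = concentration required for complete inhibition of growth.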

Tests used:
Assay in all cases: NCI-60 cell line screen, 48 h
786-0 renal = system: 786-0 renal
A549 NSCLC = system: A549 NSCLC
BT-549 breast = system: BT-549 breast
HCT-116 colon = system: HCT-116 colon
HT29 colon = system: HT29 colon
MDA-MB-231 breast = system: MDA-MB-231 breast
MOLT-4 leukemia = system: MOLT-4 leukemia
NCI-H226 lung = system: NCI-H226 lung
SK-OV-3 ovarian = system: SK-OV-3 ovarian
SNB-75 CNS = system: SNB-75 CNS

Row | SMILES | TGI (786-0 renal) [µM] | TGI (A549 NSCLC) [µM] | TGI (BT-549 breast) [µM] | TGI (HCT-116 colon) [µM] | TGI (HT29 colon) | TGI (MDA-MB-231 breast) [µM] | TGI (MOLT-4 leukemia) | TGI (NCI-H226 lung) [µM] | TGI (SK-OV-3 ovarian) [µM] | TGI (SNB-75 CNS) [µM] | GI50 (A549 NSCLC) | GI50 (BT-549 breast) | GI50 (HCT-116 colon) | GI50 (HT29 colon) [µM] | GI50 (MDA-MB-231 breast) | GI50 (MOLT-4 leukemia) | GI50 (NCI-H226 lung) [µM] | GI50 (SNB-75 CNS)
1 | COc1ccc(/C=C2\C[C@H]3[C@@H]4CC=C5C[C@@H](O)CC[C@]5(C)[C@H]4CC[C@]3(C)\C2=N\O)cc1 | 44.3 | > 100 | 36.5 | 29.3 | > 100 µM | > 100 | 34.3 µM | 94.1 | > 100 | – | – | – | – | – | – | – | – | –
2 | CN(CC(=O)Nc1ccccc1C(=O)O)c1ccccc1 | > 100 | > 100 | > 100 | > 100 | > 100 µM | > 100 | > 100 µM | > 100 | – | > 100 | – | – | – | – | – | – | – | –
3 | COC(=O)C(C)NP(=O)(OCc1cccc(Cn2cnc3c(N)ncnc32)c1)Oc1ccccc1 (configuration not stated) | – | > 100 | > 100 | > 100 | > 100 µM | > 100 | > 100 µM | > 100 | – | > 100 | > 100 µM | > 100 µM | 47 µM | > 100 | 51.7 µM | 38.3 µM | > 100 | > 100 µM
4 | CCN(CC)c1ccc(Cl)c2c1C(O)(C(C)C)C2(C)C (configuration not stated) | 27.7 | 35.1 | – | 27 | 24.5 µM | – | 35.8 µM | 33.6 | 29.3 | 32 | – | – | – | – | – | – | – | –
5 | COC(=O)c1sc(=S)sc1SCc1cccc(CSc2sc(=S)sc2C(=O)OC)c1 | > 100 | – | 94.1 | > 100 | > 100 µM | > 100 | > 100 µM | – | 51.3 | 26.6 | – | – | – | – | – | – | – | –
6 | CC(=O)Nc1ccc2c(c1)C(=O)c1ccccc1-2 | > 100 | > 100 | – | > 100 | > 100 µM | – | > 100 µM | > 100 | > 100 | > 100 | – | – | – | – | – | – | – | –
7 | N#CCC(=O)N/N=C\C(O)C(O)C(O)C(O)CO (configuration not stated) | > 100 | > 100 | > 100 | – | > 100 µM | > 100 | > 100 µM | > 100 | > 100 | > 100 | – | – | – | – | – | – | – | –
8 | Cc1csc(=Nc2ccccc2)n1CCC(O)(P(=O)(O)O)P(=O)(O)O | > 100 | > 100 | > 100 | > 100 | > 100 µM | > 100 | – | > 100 | > 100 | > 100 | – | – | – | – | – | – | – | –
9 | CC(=O)n1c2ccc(Br)cc2c2nc3ccccc3nc21 | > 100 | – | > 100 | > 100 | > 100 µM | > 100 | > 100 µM | > 100 | – | > 100 | – | – | – | – | – | – | – | –
10 | CC(C)(C)OC(=O)CC(NC(=O)OCc1ccccc1)NC(=O)OC(C)(C)C (configuration not stated) | – | – | – | – | – | – | 55.6 µg/mL | – | – | – | 35.2 µg/mL | 14.2 µg/mL | 52.1 µg/mL | – | 52.8 µg/mL | 23.5 µg/mL | – | 20.8 µg/mL
11 | CC1C(OS(=O)(=O)c2ccc3[nH]c(=S)sc3c2)CC2C3(C)CCC2(C(C)C(=O)O)C(O)C13 (configuration not stated) | 56.8 | > 100 | 66 | 27.3 | 35.4 µM | > 100 | > 100 µM | 60.4 | > 100 | – | – | – | – | – | – | – | – | –
12 | COC(=O)C1(CCCCl)CCCN1C(=O)OC(C)(C)C (configuration not stated) | > 100 | > 100 | > 100 | > 100 | > 100 µM | > 100 | – | > 100 | > 100 | > 100 | – | – | – | – | – | – | – | –
13 | O=C(c1c(F)c(F)c(F)c(F)c1F)n1c(=S)n(C(=O)c2c(F)c(F)c(F)c(F)c2F)c2ccccc21 | > 100 | – | > 100 | > 100 | > 100 µM | > 100 | 54.3 µM | – | > 100 | > 100 | – | – | – | – | – | – | – | –
14 | Cc1cnc2[nH]c(-c3cccc4ccccc34)cc(=O)c2c1 | > 100 | > 100 | > 100 | > 100 | 0.0121 µM and 0.0273 µM | – | > 100 µM | 59.9 | 0.0952 | – | – | – | – | – | 0.0119 µM | – | – | –
15 | CCCCCCC1OC23OC1CCC2C(O)CCC3O (configuration not stated) | > 100 | – | > 100 | > 100 | > 100 µM | > 100 | > 100 µM | > 100 | – | > 100 | – | – | – | – | – | – | – | –
16 | CCOC(=O)c1cn(-c2ccc([N+](=O)[O-])cc2)c(=S)n2c1nc1ccccc12 | > 100 | > 100 | > 100 | > 100 | > 100 µM | > 100 | 75.7 µM | > 100 | – | > 100 | – | – | – | – | – | – | – | –
17 | NS(=O)(=O)c1c(O)c2ccccc2oc1=O | > 100 | > 100 | > 100 | > 100 | > 100 µM | > 100 | > 100 µM | > 100 | – | > 100 | – | – | – | – | – | – | – | –
18 | COc1cc(Nc2nc3cc(C)ccc3nc2-c2ccccc2)cc(OC)c1OC | 33.9 | > 100 | – | 45.2 | 33.7 µM | – | 76.6 µM | – | > 100 | > 100 | – | – | – | – | – | – | – | –
19 | Cc1ccc2c(c1C)CC1(Cc3ccc(C)c(C)c3C1=O)C2=O (configuration not stated) | > 100 | > 100 | > 100 | > 100 | – | > 100 | > 100 µM | > 100 | – | > 100 | – | – | – | – | – | – | – | –
20 | O=c1oc2ccccc2c(-c2ccc(O)cc2)c1Oc1ccccc1 | 66.4 | > 66.9 | – | > 87.9 | > 100 µM | > 100 | > 100 µM | > 75.7 | > 100 | > 79.3 | – | – | – | – | – | – | – | –
21 | C(=NC12CC3CC(CC(C3)C1)C2)C1CCCCC1 | > 100 | > 100 | > 100 | > 100 | > 100 µM | > 100 | > 100 µM | > 100 | – | > 100 | – | – | – | – | – | – | – | –
22 | CCCN1C(=O)CN(S(=O)(=O)c2ccc(Cl)cc2)C1=O | > 100 | > 100 | > 100 | > 100 | > 100 µM | > 100 | – | > 100 | > 100 | > 100 | – | – | – | – | – | – | – | –
23 | O[C@@H]1[C@H](OC2c3ccccc3-c3ccccc32)[C@H](OCc2ccccc2)[C@@H]2OC[C@H]1O2 | 42.1 | > 100 | > 100 | > 100 | > 100 µM | > 100 | > 100 µM | > 100 | – | – | – | – | – | – | – | – | – | –
